In patent publication US20240050428A1 (Cullgen (Shanghai), Inc., priority 2020, published 2024):
Read-outs that look alike come from different tables or passages of the source.

How the values were obtained:
[1] = tested on: MV4;11 cells; assay: Cell viability assay (CellTiter-Glo) in MV4;11 cells, alone or with gilteritinib; format: cell-based; conditions: Homo sapiens, MV4;11 cells, three days, CellTiter-Glo, read-out: MV4
[2] = tested on: MOLM-13 cells; assay: Cell viability assay (CellTiter-Glo) in MOLM-13 cells, alone or with gilteritinib; format: cell-based; conditions: Homo sapiens, MOLM-13 cells, three days, CellTiter-Glo
[3] = MV4-11, 72 h, compound alone (without gilteritinib), 11 IC50
[4] = MV4-11, 72 h, compound with gilteritinib 10 nM, 11 IC50 gilteritinib
[5] = MOLM-13, 72 h, compound alone (without gilteritinib), read-out: MOLM-13 IC50
[6] = MOLM-13, 72 h, compound with gilteritinib 20 nM, read-out: MOLM-13 IC50 gilteritinib

| SMILES | IC50 [1, 3] [nM] | IC50 [1, 4] [nM] | IC50 [2, 5] [nM] | IC50 [2, 6] [nM] | IC50 ([1]; 72 h, compound alone (without gilteritinib), 11 IC50) [nM] | IC50 ([1]; 72 h, compound with gilteritinib 10 nM, 11 IC50 gilteritinib) [nM] | IC50 ([2]; 72 h, compound alone (without gilteritinib), read-out: MOLM-13 IC50) [nM] | IC50 ([2]; 72 h, compound with gilteritinib 20 nM, read-out: MOLM-13 IC50 gilteritinib) [nM] |
| --- | --- | --- | --- | --- | --- | --- | --- | --- |
| Cc1nn(CCCCCCNc2ccc3c(c2)C(=O)N(C2CCC(=O)NC2=O)C3=O)c(C)c1-c1nc2ccccc2nc1C(F)(F)F (stereo not drawn) [GS-540, 5-((6-(3,5-Dimethyl-4-(3-(trifluoromethyl)quinoxalin-2-yl)-1H-pyrazol-1-yl)hexyl)amino)-2-(2,6-dioxopiperidin-3-yl)isoindoline-1,3-dione] | > 1000 | 10 to 100 | > 1000 | 10 to 100 |  |  |  |  |
| O=C1CCC(N2C(=O)c3ccc(NCCCCCCn4cc(-c5cnc6ccc(C7CCNCC7)cc6n5)cn4)cc3C2=O)C(=O)N1 (stereo not drawn) [GS-541, 2-(2,6-Dioxopiperidin-3-yl)-5-((6-(4-(7-(piperidin-4-yl)quinoxalin-2-yl)-1H-pyrazol-1-yl)hexyl)amino)isoindoline-1,3-dione] | 100 to 1000 | < 10 | 10 to 100 | < 10 |  |  |  |  |
| O=C1CCC(N2C(=O)c3ccc(NCCCCCCn4cc(-c5cnc6ccc(C7CCOCC7)cc6n5)cn4)cc3C2=O)C(=O)N1 (stereo not drawn) [GS-542, 2-(2,6-Dioxopiperidin-3-yl)-5-((6-(4-(7-(tetrahydro-2H-pyran-4-yl)quinoxalin-2-yl)-1H-pyrazol-1-yl)hexyl)amino)isoindoline-1,3-dione] | 10 to 100 | < 10 | 10 to 100 | < 10 |  |  |  |  |
| O=C1CCC(N2C(=O)c3ccc(NCCCCC(=O)N4CCC(n5cc(-c6cnc7ccc(N8CCNCC8)cc7n6)cn5)CC4)cc3C2=O)C(=O)N1 (stereo not drawn) [GS-543, 2-(2,6-Dioxopiperidin-3-yl)-5-((5-oxo-5-(4-(4-(7-(piperazin-1-yl)quinoxalin-2-yl)-1H-pyrazol-1-yl)piperidin-1-yl)pentyl)amino)isoindoline-1,3-dione] | 10 to 100 | < 10 | 10 to 100 | < 10 |  |  |  |  |
| O=C1CCC(N2C(=O)c3ccc(NCCCCCCn4cc(-c5nc6ccccc6nc5C(F)F)cn4)cc3C2=O)C(=O)N1 (stereo not drawn) [GS-547, 5-((6-(4-(3-(Difluoromethyl)quinoxalin-2-yl)-1H-pyrazol-1-yl)hexyl)amino)-2-(2,6-dioxopiperidin-3-yl)isoindoline-1,3-dione] |  |  |  |  | 100 to 1000 | 10 to 100 | > 1000 | 10 to 100 |

The next lines start with results.

| IC50 [1, 3] [nM] | IC50 [1, 4] [nM] | IC50 [2, 5] [nM] | IC50 [2, 6] [nM] | SMILES | IC50 ([1]; 72 h, compound alone (without gilteritinib), 11 IC50) [nM] | IC50 ([1]; 72 h, compound with gilteritinib 10 nM, 11 IC50 gilteritinib) [nM] | IC50 ([2]; 72 h, compound alone (without gilteritinib), read-out: MOLM-13 IC50) [nM] | IC50 ([2]; 72 h, compound with gilteritinib 20 nM, read-out: MOLM-13 IC50 gilteritinib) [nM] |
| --- | --- | --- | --- | --- | --- | --- | --- | --- |
| 100 to 1000 | < 10 | 100 to 1000 | < 10 | O=C1CCC(N2C(=O)c3ccc(NCCCCC(=O)N4CCC(n5cc(-c6cnc7ccc(C8=CCNCC8)cc7n6)cn5)CC4)cc3C2=O)C(=O)N1 (stereo not drawn) [GS-544, 2-(2,6-Dioxopiperidin-3-yl)-5-((5-oxo-5-(4-(4-(7-(1,2,3,6-tetrahydropyridin-4-yl)quinoxalin-2-yl)-1H-pyrazol-1-yl)piperidin-1-yl)pentyl)amino)isoindoline-1,3-dione] |  |  |  |  |
| > 1000 | 100 to 1000 | 100 to 1000 | 10 to 100 | O=C1CCC(N2C(=O)c3ccc(NCCCCC(=O)N4CCC(c5cnc6ccccc6n5)CC4)cc3C2=O)C(=O)N1 (stereo not drawn) [GS-545, 2-(2,6-Dioxopiperidin-3-yl)-5-((5-oxo-5-(4-(quinoxalin-2-yl)piperidin-1-yl)pentyl)amino)isoindoline-1,3-dione] |  |  |  |  |
| > 1000 | 100 to 1000 | > 1000 | 10 to 100 | Cc1cn(CCCCCCNc2ccc3c(c2)C(=O)N(C2CCC(=O)NC2=O)C3=O)nc1-c1cnc2ccccc2n1 (stereo not drawn) [GS-546, 2-(2,6-Dioxopiperidin-3-yl)-5-((6-(4-methyl-3-(quinoxalin-2-yl)-TH-pyrazol-1-yl)hexyl)amino)isoindoline-1,3-dione] |  |  |  |  |
| 100 to 1000 | < 10 | 100 to 1000 | < 10 | CN1CCC(c2ccc3ncc(-c4cnn(CCCCCCNc5ccc6c(c5)C(=O)N(C5CCC(=O)NC5=O)C6=O)c4)nc3c2)CC1 (stereo not drawn) [GS-548, 2-(2,6-Dioxopiperidin-3-yl)-5-((6-(4-(7-(1-methylpiperidin-4-yl)quinoxalin-2-yl)-1H-pyrazol-1-yl)hexyl)amino)isoindoline-1,3-dione] |  |  |  |  |
